Columns and labels:
Format in all cases: cell-based
Gram-positive cocci = assay: Experiment Example 5: influence of composition pH (10.0% maltose), specimen culture, Gram smear; conditions: 1.0% yeast extract, 1.6% xanthan gum
Excerpt: (§1) • (1)The preparation of the compositions: Maltose was used to prepare the following compositions according to the method mentioned above: • A. 10.0% maltose, 1.0% yeast extract, 1.6% xanthan gum, pH adjusted to 4.4; • B. 10.0% maltose, 1.0% yeast extract, 1.6% xanthan gum, pH adjusted to 4.8; • C. 10.0% maltose, 1.0% yeast extract, 1.6% xanthan gum, pH adjusted to 5.1; • D. 10.0% maltose, 1.0% yeast extract, 1.6% xanthan gum, pH adjusted to 5.4; • E. 10.0% maltose, 1.0% yeast extract, 1.6% xanthan gum, pH adjusted to 5.8; • F. 10.0% maltose, 1.0% yeast extract, 1.6% xanthan gum, pH adjusted to 6.4; • G. 10.0% maltose, 1.0% yeast extract, 1.6% xanthan gum, pH adjusted to 6.8; • H. 10.0% maltose, 1.0% yeast extract, 1.6% xanthan gum, pH adjusted to 7.2; • (2)The preparation of the test tubes: Compositions prepared above were filled into the test tubes, with each tube containing 5 ml, sterilized, and kept until use for experiments. • (3)Specimen suspension: Vaginal secretion was taken from one of the patients suffering from typical bacterial vaginosis with a cotton swab, then the swab was washed in 2 ml sterilized Trypcase-soy Broth immediately, and thus the specimen suspension was ready. […] Then the tubes were placed in a candle jar and cultivated at 37° C. After 24 hours and 48 hours' culture, culture samples were taken respectively from each of the tubes, then the Gram smears of the samples were observed and the pH values of culture samples were tested.

Gram-negative bacilli = assay: as above; conditions: 1.0% yeast extract, 1.6% xanthan gum
Excerpt: as §1

Gram-negative cocci = assay: as above; conditions: 1.0% yeast extract, 1.6% xanthan gum
Excerpt: as §1

Gram-positive bacilli = assay: as above; conditions: 1.0% yeast extract, 1.6% xanthan gum
Excerpt: as §1

[1] = tested on: vaginal secretion specimen of a patient suffering from typical bacterial vaginosis; assay: Experiment Example 5: pH of culture samples (production of acids); conditions: 10.0% maltose, 1.0% yeast extract, 1.6% xanthan gum
Excerpt: as §1

[2] = pH of the composition 4.4, 24 hours
[3] = pH of the composition 4.4, 48 hours
[4] = pH of the composition 4.8, 24 hours
[5] = pH of the composition 4.8, 48 hours
[6] = pH of the composition 5.1, 24 hours
[7] = pH of the composition 5.1, 48 hours
[8] = pH of the composition 5.4, 24 hours
[9] = pH of the composition 5.4, 48 hours
[10] = pH of the composition 5.8, 24 hours
[11] = pH of the composition 5.8, 48 hours
[12] = pH of the composition 6.4, 24 hours
[13] = pH of the composition 6.4, 48 hours
[14] = pH of the composition 6.8, 24 hours
[15] = pH of the composition 6.8, 48 hours
[16] = pH of the composition 7.2, 24 hours
[17] = pH of the composition 7.2, 48 hours

OC[C@H]1O[C@H](O[C@H]2[C@H](O)[C@@H](O)[C@H](O)O[C@@H]2CO)[C@H](O)[C@@H](O)[C@@H]1O [Maltose, maltose]
Bacteria G + c (Gram-positive cocci), 24 hours culture (Gram-positive cocci; [2]): G + c, − (No or less than one bacterium per field of version under oil-immersion lens)
Bacteria G + c (Gram-positive cocci), 48 hours culture (Gram-positive cocci; [3]): G + c, − (No or less than one bacterium per field of version under oil-immersion lens)
Bacteria G + c (Gram-positive cocci), 24 hours culture (Gram-positive cocci; [4]): G + c, + (1-9 bacteria per field of vision under oil-immersion lens)
Bacteria G + c (Gram-positive cocci), 48 hours culture (Gram-positive cocci; [5]): G + c, + (1-9 bacteria per field of vision under oil-immersion lens)
Bacteria G + c (Gram-positive cocci), 24 hours culture (Gram-positive cocci; [6]): G + c, + (1-9 bacteria per field of vision under oil-immersion lens)
Bacteria G + c (Gram-positive cocci), 48 hours culture (Gram-positive cocci; [7]): G + c, ++ (About 10-99 bacteria per field of vision under oil-immersion lens)
Bacteria G + c (Gram-positive cocci), 24 hours culture (Gram-positive cocci; [8]): G + c, + (1-9 bacteria per field of vision under oil-immersion lens)
Bacteria G + c (Gram-positive cocci), 48 hours culture (Gram-positive cocci; [9]): G + c, − (No or less than one bacterium per field of version under oil-immersion lens)
Bacteria G + c (Gram-positive cocci), 24 hours culture (Gram-positive cocci; [10]): G + c, + (1-9 bacteria per field of vision under oil-immersion lens)
Bacteria G + c (Gram-positive cocci), 48 hours culture (Gram-positive cocci; [11]): G + c, + (1-9 bacteria per field of vision under oil-immersion lens)
Bacteria G + c (Gram-positive cocci), 24 hours culture (Gram-positive cocci; [12]): G + c, + (1-9 bacteria per field of vision under oil-immersion lens)
Bacteria G + c (Gram-positive cocci), 48 hours culture (Gram-positive cocci; [13]): G + c, + (1-9 bacteria per field of vision under oil-immersion lens)
Bacteria G + c (Gram-positive cocci), 24 hours culture (Gram-positive cocci; [14]): G + c, − (No or less than one bacterium per field of version under oil-immersion lens)
Bacteria G + c (Gram-positive cocci), 48 hours culture (Gram-positive cocci; [15]): G + c, + (1-9 bacteria per field of vision under oil-immersion lens)
Bacteria G + c (Gram-positive cocci), 24 hours culture (Gram-positive cocci; [16]): G + c, − (No or less than one bacterium per field of version under oil-immersion lens)
Bacteria G + c (Gram-positive cocci), 48 hours culture (Gram-positive cocci; [17]): G + c, − (No or less than one bacterium per field of version under oil-immersion lens)
Bacteria G − b (Gram-negative bacilli), 24 hours culture (Gram-negative bacilli; [2]): G − b, ++ (About 10-99 bacteria per field of vision under oil-immersion lens)
Bacteria G − b (Gram-negative bacilli), 48 hours culture (Gram-negative bacilli; [3]): G − b, ++ (About 10-99 bacteria per field of vision under oil-immersion lens)
Bacteria G − b (Gram-negative bacilli), 24 hours culture (Gram-negative bacilli; [4]): G − b, ++ (About 10-99 bacteria per field of vision under oil-immersion lens)
Bacteria G − b (Gram-negative bacilli), 48 hours culture (Gram-negative bacilli; [5]): G − b, ++ (About 10-99 bacteria per field of vision under oil-immersion lens)
Bacteria G − b (Gram-negative bacilli), 24 hours culture (Gram-negative bacilli; [6]): G − b, ++ (About 10-99 bacteria per field of vision under oil-immersion lens)
Bacteria G − b (Gram-negative bacilli), 48 hours culture (Gram-negative bacilli; [7]): G − b, ++ (About 10-99 bacteria per field of vision under oil-immersion lens)
Bacteria G − b (Gram-negative bacilli), 24 hours culture (Gram-negative bacilli; [8]): G − b, + (1-9 bacteria per field of vision under oil-immersion lens)
Bacteria G − b (Gram-negative bacilli), 48 hours culture (Gram-negative bacilli; [9]): G − b, ++ (About 10-99 bacteria per field of vision under oil-immersion lens)
Bacteria G − b (Gram-negative bacilli), 24 hours culture (Gram-negative bacilli; [10]): G − b, ++ (About 10-99 bacteria per field of vision under oil-immersion lens)
Bacteria G − b (Gram-negative bacilli), 48 hours culture (Gram-negative bacilli; [11]): G − b, ++ (About 10-99 bacteria per field of vision under oil-immersion lens)
Bacteria G − b (Gram-negative bacilli), 24 hours culture (Gram-negative bacilli; [12]): G − b, ++ (About 10-99 bacteria per field of vision under oil-immersion lens)
Bacteria G − b (Gram-negative bacilli), 48 hours culture (Gram-negative bacilli; [13]): G − b, ++ (About 10-99 bacteria per field of vision under oil-immersion lens)
Bacteria G − b (Gram-negative bacilli), 24 hours culture (Gram-negative bacilli; [14]): G − b, ++ (About 10-99 bacteria per field of vision under oil-immersion lens)
Bacteria G − b (Gram-negative bacilli), 48 hours culture (Gram-negative bacilli; [15]): G − b, ++ (About 10-99 bacteria per field of vision under oil-immersion lens)
Bacteria G − b (Gram-negative bacilli), 24 hours culture (Gram-negative bacilli; [16]): G − b, + (1-9 bacteria per field of vision under oil-immersion lens)
Bacteria G − b (Gram-negative bacilli), 48 hours culture (Gram-negative bacilli; [17]): G − b, ++ (About 10-99 bacteria per field of vision under oil-immersion lens)
Bacteria G − c (Gram-negative cocci), 24 hours culture (Gram-negative cocci; [2]): G − c, − (No or less than one bacterium per field of version under oil-immersion lens)
Bacteria G − c (Gram-negative cocci), 48 hours culture (Gram-negative cocci; [3]): G − c, − (No or less than one bacterium per field of version under oil-immersion lens)
Bacteria G − c (Gram-negative cocci), 24 hours culture (Gram-negative cocci; [4]): G − c, − (No or less than one bacterium per field of version under oil-immersion lens)
Bacteria G − c (Gram-negative cocci), 48 hours culture (Gram-negative cocci; [5]): G − c, − (No or less than one bacterium per field of version under oil-immersion lens)
Bacteria G − c (Gram-negative cocci), 24 hours culture (Gram-negative cocci; [6]): G − c, − (No or less than one bacterium per field of version under oil-immersion lens)
Bacteria G − c (Gram-negative cocci), 48 hours culture (Gram-negative cocci; [7]): G − c, − (No or less than one bacterium per field of version under oil-immersion lens)
Bacteria G − c (Gram-negative cocci), 24 hours culture (Gram-negative cocci; [8]): G − c, − (No or less than one bacterium per field of version under oil-immersion lens)
Bacteria G − c (Gram-negative cocci), 48 hours culture (Gram-negative cocci; [9]): G − c, − (No or less than one bacterium per field of version under oil-immersion lens)
Bacteria G − c (Gram-negative cocci), 24 hours culture (Gram-negative cocci; [10]): G − c, − (No or less than one bacterium per field of version under oil-immersion lens)
Bacteria G − c (Gram-negative cocci), 48 hours culture (Gram-negative cocci; [11]): G − c, − (No or less than one bacterium per field of version under oil-immersion lens)
Bacteria G − c (Gram-negative cocci), 24 hours culture (Gram-negative cocci; [12]): G − c, − (No or less than one bacterium per field of version under oil-immersion lens)
Bacteria G − c (Gram-negative cocci), 48 hours culture (Gram-negative cocci; [13]): G − c, − (No or less than one bacterium per field of version under oil-immersion lens)
Bacteria G − c (Gram-negative cocci), 24 hours culture (Gram-negative cocci; [14]): G − c, − (No or less than one bacterium per field of version under oil-immersion lens)
Bacteria G − c (Gram-negative cocci), 48 hours culture (Gram-negative cocci; [15]): G − c, − (No or less than one bacterium per field of version under oil-immersion lens)
Bacteria G − c (Gram-negative cocci), 24 hours culture (Gram-negative cocci; [16]): G − c, − (No or less than one bacterium per field of version under oil-immersion lens)
Bacteria G − c (Gram-negative cocci), 48 hours culture (Gram-negative cocci; [17]): G − c, − (No or less than one bacterium per field of version under oil-immersion lens)
Bacteria G + b (Gram-positive bacilli), 24 hours culture (Gram-positive bacilli; [2]): G + b, −˜+
Bacteria G + b (Gram-positive bacilli), 48 hours culture (Gram-positive bacilli; [3]): G + b, −˜+
Bacteria G + b (Gram-positive bacilli), 24 hours culture (Gram-positive bacilli; [4]): G + b, + (1-9 bacteria per field of vision under oil-immersion lens)
Bacteria G + b (Gram-positive bacilli), 48 hours culture (Gram-positive bacilli; [5]): G + b, + (1-9 bacteria per field of vision under oil-immersion lens)
Bacteria G + b (Gram-positive bacilli), 24 hours culture (Gram-positive bacilli; [6]): G + b, + (1-9 bacteria per field of vision under oil-immersion lens)
Bacteria G + b (Gram-positive bacilli), 24 hours culture (Gram-positive bacilli; [8]): G + b, +++ (About 100 bacteria or more per field vision under oil-immersion lens, even uncountable)
Bacteria G + b (Gram-positive bacilli), 24 hours culture (Gram-positive bacilli; [10]): G + b, ++ (About 10-99 bacteria per field of vision under oil-immersion lens)
Bacteria G + b (Gram-positive bacilli), 48 hours culture (Gram-positive bacilli; [11]): G + b, +++ (About 100 bacteria or more per field vision under oil-immersion lens, even uncountable)
Bacteria G + b (Gram-positive bacilli), 24 hours culture (Gram-positive bacilli; [12]): G + b, + (1-9 bacteria per field of vision under oil-immersion lens)
Bacteria G + b (Gram-positive bacilli), 48 hours culture (Gram-positive bacilli; [13]): G + b, +++ (About 100 bacteria or more per field vision under oil-immersion lens, even uncountable)
Bacteria G + b (Gram-positive bacilli), 24 hours culture (Gram-positive bacilli; [14]): G + b, ++ (About 10-99 bacteria per field of vision under oil-immersion lens)
Bacteria G + b (Gram-positive bacilli), 48 hours culture (Gram-positive bacilli; [15]): G + b, +++ (About 100 bacteria or more per field vision under oil-immersion lens, even uncountable)
Bacteria G + b (Gram-positive bacilli), 24 hours culture (Gram-positive bacilli; [16]): G + b, ++ (About 10-99 bacteria per field of vision under oil-immersion lens)
Bacteria G + b (Gram-positive bacilli), 48 hours culture (Gram-positive bacilli; [17]): G + b, +++ (About 100 bacteria or more per field vision under oil-immersion lens, even uncountable)
pH, 24 hours culture ([1]; pH of the composition 4.4): 4.4
pH, 48 hours culture ([1]; pH of the composition 4.4): 4.4
pH, 24 hours culture ([1]; pH of the composition 4.8): 4.8
pH, 48 hours culture ([1]; pH of the composition 4.8): 4.4-4.8
pH, 24 hours culture ([1]; pH of the composition 5.1): 4.6
pH, 48 hours culture ([1]; pH of the composition 5.1): 4.4-4.6
pH, 24 hours culture ([1]; pH of the composition 5.4): 5.4
pH, 48 hours culture ([1]; pH of the composition 5.4): 4.1-4.4
pH, 24 hours culture ([1]; pH of the composition 5.8): 4.8
pH, 48 hours culture ([1]; pH of the composition 5.8): 4.1
pH, 24 hours culture ([1]; pH of the composition 6.4): 4.4
pH, 48 hours culture ([1]; pH of the composition 6.4): 4.1
pH, 24 hours culture ([1]; pH of the composition 6.8): 5.4
pH, 48 hours culture ([1]; pH of the composition 6.8): 4.4
pH, 24 hours culture ([1]; pH of the composition 7.2): 5.4
pH, 48 hours culture ([1]; pH of the composition 7.2): 4.1

Source: US6964949B2, “Pharmaceutical compositions for promoting the growth of gram-positive bacilli and increasing the acidity in the vagina and the use thereof” (Shanghai Jiao Da Onlly Co., Ltd., priority 2000, dated 2005)
